The source of these data is patent US6469000B1, “1,3-diheterocyclic metalloprotease inhibitors” (The Procter & Gamble Co., priority 1996, dated 2002).

Format in all cases: in vivo
In test [1] the test system is human subject suffering from osteoarthritis. Put plainly: Example B: capsule given daily to a subject with osteoarthritis. Particulars: capsule containing 70 mg of Example 3 daily for 5 years, 90 kg person. Here is the method:
A capsule for oral administration, according to the present invention, is made comprising:
A human subject weighing 90 kg (198 lbs), suffering from osteoarthritis, is treated by a method of this invention. Specifically, for 5 years, a capsule containing 70 mg of Example 3 is administered daily to said subject.

The subject of test [2] is patient suffering from chemical burns. The test is described as follows: Example D: topical composition applied to chemical burns. Particulars: 0.20% w/v Compound of Example 3, topical, at each dressing change (b.i.d.). From the text:
An topical composition for local administration, according to the present invention, is made comprising:
A patient suffering from chemical burns applies the composition at each dressing change (b.i.d.).

The subject of test [3] is human subject suffering from rheumatoid arthritis. The test is described as follows: Example A: tablets given orally to a subject with rheumatoid arthritis. Particulars: tablet with 15 mg Example 9, three tablets per day orally for 2 years, 60 kg person. On the procedure:
A tablet composition for oral administration, according to the present invention, is made comprising:
A human subject weighing 60 kg (132 lbs), suffering from rheumatoid arthritis, is treated by a method of this invention. Specifically, for 2 years, a regimen of three tablets per day is administered orally to said subject.

Molecules are shown by their SMILES.

On to `COc1ccc(S(=O)(=O)N2CCCN(S(C)(=O)=O)C2C(=O)NO)cc1` (racemic) [Example 3, N-hydroxy 1-[(4-methoxyphenyl)sulfonyl]-3-[methylsulphonyl]-hexahydro-pyrimidine-2(R, S)-carboxamide], for which, in test [1], the “erosion/fibrillation of the articular cartilage, examined via orthoscopy” value was “no further advancement of erosion/fibrillation of the articular cartilage”. Besides, the “scarring after chemical burns” value in test [2] is “substantially diminished”.

In the case of `COc1ccc(S(=O)(=O)N2CC(C)(C)C(=O)N(Cc3ccccc3)C2C(=O)NO)cc1` (stereo not shown) [Example 9, N-hydroxy-1-[(4-methoxyphenyl)sulfonyl]-3-phenylmethyl-4-oxo-5,5-dimethyl-hexahydro-pyrimidin-2-carboxamide], in test [3], the “inflammation at the end of the treatment period” value was “reduced inflammation” and the “mobility at the end of the treatment period” value is “improved mobility without concomitant pain”.
